Data: patent publication US11324798B2, “Materials and methods for treatment of inflammation” (CYTOGEL PHARMA, LLC, priority 2010, dated 2022)
“And” between values parts separate entries of the source, which are not always exact repeats. Equal entries are not always repeated.

Test system: CGRP release from isolated rat tracheae
Test: Electrical field stimulation (EFS)-evoked release of CGRP from isolated rat tracheae, radioimmunoassay
Type: cell-based
Settings: for Release of CGRP into the incubation medium / Absolute release of CGRP: individual experiments 1-5; for Release of CGRP into the incubation medium, Mean / Absolute release of CGRP, Mean: mean of 5 experiments
Procedure: For the in vitro release experiments, a 10 mg/ml (14.62 mM; MW 684) stock solution of CYT-1010 was made in DMSO, which was further diluted with the oxygenated Krebs solution used in the organ bath: 5.5 μl of this CYT-1010 stock solution was added into 40 ml Krebs to make the highest applied 2 μM concentration of compound CYT-1010. Further dilutions to obtain the lower concentrations were prepared with Krebs solution.
The incubation media containing the respective CYT-1010 concentrations were administered in the stimulated and post-stimulated 8-min fractions.
Since even the highest, 2 μM, concentration of CYT-1010 solution contained negligible amount of DMSO, simple Krebs solution was used in the control experiments.
Rats were exsanguinated in deep anaesthesia (sodium thiobarbital, 50 mg/kg i.p.), then the whole trachea was removed and cleaned of fat and adhering connective tissues. Tracheae from two rats were placed into the same 1.8 ml organ bath to obtain sufficient amount of released peptide and perfused (1 ml/min) with pH-(7.2) controlled oxygenized Krebs solution for 60 minutes (equilibration period) at 37° C. temperature. After discontinuation of the flow, the solution was changed three times for eight minutes to produce pre-stimulated, stimulated, post-stimulated fractions.
Electrical field stimulation (40 V, 0.1 ms, 10 Hz for 120 s; 1200 pulses) was performed to elicit neurotransmitter release at the beginning of the second 8-minute period. Stimulation with 0.1 ms pulse width selectively activates very fast Na^+ channels, which are only present in the membrane of neural structures (Birmingham and Wilson, 1963; Coburn and Tomita 1973; Szolcsányi and Barthó, 1982); therefore, it excites nerve endings without influencing other excitable cells in the tracheae such as smooth muscle cells.
Krebs solution was used in the pre-stimulated fraction for determining the basal CGRP outflow. During the stimulated and post-stimulated fractions, the incubation medium contained the examined concentrations of CYT-1010 (10, 100, 500, 1000 and 2000 nM) in separate experiments, and only one concentration was applied to the same tracheae to avoid neuropeptide depletion. In each group, 5 experiments were performed in parallel in 5 perfusion systems to provide n=5 data per group (10 tracheae per group).
60 male Wistar rats (250-300 g) altogether were divided into 6 experimental groups: Group 1: controls (n=10); Group 2: 10 nM CYT-1010 (n=10); Group 3: 100 nM CYT-1010 (n=10); Group 4: 500 nM CYT-1010 (n=10); Group 5: 1000 nM CYT-1010 (n=10); and Group 6: 2000 nM CYT-1010 (n=10). The total study was performed on three experimental days, two groups every occasion.
Calcitonin gene-related peptide (CGRP) and substance P (SP) concentrations were determined from 400-400 μl samples of organ fluid of the preparations by means of radioimmunoassay methods described in Nemeth et al., 1996, 1998, 1999, 2006; Helyes et al., 1997, 2001, 2006; Borzsei et al., 2008). Each of these publications is incorporated herein by reference in its entirety.
The released amount of the peptides CGRP and SP was calculated as fmol peptide per mg wet tissue (trachea). The absolute release in response to EFS in each experiment was calculated by adding peptide release in the second and third 8-min fractions and then taking off the basal release measured in the first (pre-stimulated) fraction. The detection limits of the RIA assays were 0.2 fmol/tube and 2 fmol/tube for CGRP and SP, respectively.

## NC(Cc1ccc(O)cc1)C(=O)NC1CCCCNC(=O)C(Cc2ccccc2)NC(=O)C(Cc2c[nH]c3ccccc23)NC1=O [CYT-1010, H-Tyr-c-[D-Lys-Trp-Phe]]
10 nM
  Effect on CGRP release in the third, post-stimulated fraction: did not influence
  Absolute release of CGRP: 0.762 fmol/mg wet tissue and 0.650 fmol/mg wet tissue and 0.201 fmol/mg wet tissue and 0.001 fmol/mg wet tissue and 0.706 fmol/mg wet tissue
  Absolute release of CGRP, Mean: 0.464 fmol/mg wet tissue
10 nM, after stimulation
  CGRP release, % increase above baseline: 105.75%
10 nM, after stimulation (post-stimulated 8-min fraction)
  Release of CGRP into the incubation medium: 0.602 fmol/mg wet tissue and 0.730 fmol/mg wet tissue and 0.193 fmol/mg wet tissue and 0.204 fmol/mg wet tissue and 0.528 fmol/mg wet tissue
10 nM, after stimulation (post-stimulated fraction)
  Release of CGRP into the incubation medium, Mean: 0.451 fmol/mg wet tissue
10 nM, before stimulation
  CGRP release, % increase above baseline: 0.00%
10 nM, before stimulation (pre-stimulated 8-min fraction)
  Release of CGRP into the incubation medium: 0.220 fmol/mg wet tissue and 0.250 fmol/mg wet tissue and 0.146 fmol/mg wet tissue and 0.256 fmol/mg wet tissue and 0.226 fmol/mg wet tissue
10 nM, before stimulation (pre-stimulated fraction)
  Release of CGRP into the incubation medium, Mean: 0.219 fmol/mg wet tissue
10 nM, during stimulation
  CGRP release, % increase above baseline: 105.75%
10 nM, during stimulation (stimulated 8-min fraction)
  Release of CGRP into the incubation medium: 0.600 fmol/mg wet tissue and 0.420 fmol/mg wet tissue and 0.299 fmol/mg wet tissue and 0.308 fmol/mg wet tissue and 0.630 fmol/mg wet tissue
10 nM, during stimulation (stimulated fraction)
  Release of CGRP into the incubation medium, Mean: 0.451 fmol/mg wet tissue
100 nM, after stimulation
  CGRP release, % increase above baseline: 39.26%
100 nM, after stimulation (post-stimulated 8-min fraction)
  Release of CGRP into the incubation medium: 0.284 fmol/mg wet tissue and 0.135 fmol/mg wet tissue and 0.267 fmol/mg wet tissue and 0.231 fmol/mg wet tissue and 0.226 fmol/mg wet tissue
100 nM, after stimulation (post-stimulated fraction)
  Release of CGRP into the incubation medium, Mean: 0.229 fmol/mg wet tissue
100 nM, before stimulation
  CGRP release, % increase above baseline: 0.00%
100 nM, before stimulation (pre-stimulated 8-min fraction)
  Release of CGRP into the incubation medium: 0.243 fmol/mg wet tissue and 0.129 fmol/mg wet tissue and 0.128 fmol/mg wet tissue and 0.138 fmol/mg wet tissue and 0.183 fmol/mg wet tissue
100 nM, before stimulation (pre-stimulated fraction)
  Release of CGRP into the incubation medium, Mean: 0.164 fmol/mg wet tissue
100 nM, during stimulation
  CGRP release, % increase above baseline: 184.81%
100 nM, during stimulation (stimulated 8-min fraction)
  Release of CGRP into the incubation medium: 0.586 fmol/mg wet tissue and 0.281 fmol/mg wet tissue and 0.526 fmol/mg wet tissue and 0.390 fmol/mg wet tissue and 0.554 fmol/mg wet tissue
100 nM, during stimulation (stimulated fraction)
  Release of CGRP into the incubation medium, Mean: 0.468 fmol/mg wet tissue
100 nM
  Absolute release of CGRP: 0.384 fmol/mg wet tissue and 0.159 fmol/mg wet tissue and 0.538 fmol/mg wet tissue and 0.344 fmol/mg wet tissue and 0.415 fmol/mg wet tissue
  Absolute release of CGRP, Mean: 0.368 fmol/mg wet tissue
500 nM (maximal effect), 0.5 µM
  Inhibition of EFS-evoked absolute CGRP release: 69.9% and 70%
500 nM, after stimulation
  CGRP release, % increase above baseline: 48.89%
500 nM, after stimulation (post-stimulated 8-min fraction)
  Release of CGRP into the incubation medium: 0.137 fmol/mg wet tissue and 0.206 fmol/mg wet tissue and 0.267 fmol/mg wet tissue and 0.224 fmol/mg wet tissue and 0.213 fmol/mg wet tissue
500 nM, after stimulation (post-stimulated fraction)
  Release of CGRP into the incubation medium, Mean: 0.210 fmol/mg wet tissue
500 nM, before stimulation
  CGRP release, % increase above baseline: 0.00%
500 nM, before stimulation (pre-stimulated 8-min fraction)
  Release of CGRP into the incubation medium: 0.136 fmol/mg wet tissue and 0.148 fmol/mg wet tissue and 0.146 fmol/mg wet tissue and 0.118 fmol/mg wet tissue and 0.157 fmol/mg wet tissue
500 nM, before stimulation (pre-stimulated fraction)
  Release of CGRP into the incubation medium, Mean: 0.141 fmol/mg wet tissue
500 nM, during stimulation
  CGRP release, % increase above baseline: 70.52%
500 nM, during stimulation (stimulated 8-min fraction)
  Release of CGRP into the incubation medium: 0.162 fmol/mg wet tissue and 0.301 fmol/mg wet tissue and 0.304 fmol/mg wet tissue and 0.192 fmol/mg wet tissue and 0.241 fmol/mg wet tissue
500 nM, during stimulation (stimulated fraction)
  Release of CGRP into the incubation medium, Mean: 0.240 fmol/mg wet tissue
500 nM
  Absolute release of CGRP: 0.028 fmol/mg wet tissue and 0.212 fmol/mg wet tissue and 0.279 fmol/mg wet tissue and 0.181 fmol/mg wet tissue and 0.140 fmol/mg wet tissue
  Absolute release of CGRP, Mean: 0.168 fmol/mg wet tissue
1000 nM, 1 µM
  Inhibition of EFS-evoked absolute CGRP release: 66.3% and 66%
2000 nM
  Inhibition of EFS-evoked absolute CGRP release: 49.1%
1 microM, after stimulation
  CGRP release, % increase above baseline: 29.82%
1 microM, after stimulation (post-stimulated 8-min fraction)
  Release of CGRP into the incubation medium: 0.386 fmol/mg wet tissue and 0.162 fmol/mg wet tissue and 0.130 fmol/mg wet tissue (2×) and 0.121 fmol/mg wet tissue
1 microM, after stimulation (post-stimulated fraction)
  Release of CGRP into the incubation medium, Mean: 0.186 fmol/mg wet tissue
1 microM, before stimulation
  CGRP release, % increase above baseline: 00.0%
1 microM, before stimulation (pre-stimulated 8-min fraction)
  Release of CGRP into the incubation medium: 0.262 fmol/mg wet tissue and 0.135 fmol/mg wet tissue and 0.108 fmol/mg wet tissue (2×) and 0.102 fmol/mg wet tissue
1 microM, before stimulation (pre-stimulated fraction)
  Release of CGRP into the incubation medium, Mean: 0.143 fmol/mg wet tissue
1 microM, during stimulation
  CGRP release, % increase above baseline: 101.59%
